# In patent US4967772A, “Tobacco smoking article and treatment of tobacco smoke with at least one alcohol” (C.A. Blockers, Inc., priority 1987, dated 1990):
# Assays:
# rats = settings: cited from earlier work
# rodents = settings: cited from earlier work; for carcinogenicity: N-nitroso derivatives of tobacco alkaloids
# tissues of the body = settings: [14C] NNN, adult male C57BL/6J mice; cited from earlier work
# F-344 rat esophagus = settings: in contrast to other tissues; cited from earlier work
# F-344 rats = settings: NNN in drinking water; cited from earlier work
# [1] = system: malignant growth and tumor development; settings: cited from earlier work
# epithelial membranes = settings: cited from earlier work
# nitrosamine localization [2] = experiment: Inhibition of selective localization of nitrosamines (delocalization), general statement; format: in vivo
# Text: The alcohols which are operable according to the invention include alcohols having two or more carbons. However, it is preferable to use alcohols having alkyl groups of at least three carbons or greater. The alkyl groups may have a straight-chain or branched chain structure. Moreover, the alkyl groups may have a cyclic or acyclic structure.
# bronchial epithelium = experiment: Whole-body autoradiography of [14C] NNN after inhalation of cyclohexanol vapor; format: in vivo, C57BL/6J mouse; settings: 5 min inhalation
# Protocol: The mouse was kept in the closed beaker for about five minutes as the bottom of the beaker was maintained at 50° C. in a water bath. […] Handbook of Chemistry and Physics (1979) at D-203 to D-217, which is incorporated herein in its entirety.
# One hour later, the mouse was anesthetized lightly by ether and frozen by immersion in dry ice/hexane. […] Control experiments were conducted for comparison purposes and radioactivity was detected in the respiratory epithelium in the controls.
# Example 2 was duplicated, except that the mouse was kept in the closed beaker for five minutes as the bottom of the beaker was maintained at 20° C. in a water bath. […] After injection as in Example 2, the mouse was processed in the same manner as in Example 2.
# salivary duct epithelium = settings: oral 20 min before i.v. [14C] NNN; ethanol 1 and 5 g/Kg, n-butanol 0.2 and 1 g/Kg; 1 h
# Protocol: (§1) One hour later, the mice were anesthetized lightly with ether and frozen by immersion in dry ice/hexane. Twenty u-thick whole-body sagittal sections of the frozen mice were taken onto Scotch tape and were then processed for whole-body autoradiography by known methods. See W. Waddell et al, Drug Fate and Metabolism: Methods and Techniques. E.R. Garrett and J.L. Hirtz, Eds. […] Photometric density in areas of the developed autoradiographs was measured with an ADG Instruments photometer and a photocell with an aperture of three mm lying on the easel of a photographic enlarger. The X-ray film was placed in the enlarger and raised to produce a magnification of thirty-five times on the easel.
# (§2) NNN. […] (Twenty minutes is the average time it takes for alcohols introduced by oral intubation in mice to reach the peak blood level.)
# (§3) The number within each bar thereof represents the dose in g/kg of the alcohol which was administered orally twenty minutes before the [^14 C] NNN was given intravenously. The mice were frozen one hour after receiving the [^14 C] NNN. The means for each mouse were from fifteen measurements on random areas of that site (five absorbancies on each of three autoradiographs) after setting blood in each on zero. The control value is the mean from six mice; the n-butanol at one g/kg is from two mice; and the other means are from one mouse.
# liver = settings: oral 20 min before i.v. [14C] NNN; ethanol 1 and 5 g/Kg, n- and t-butanol 0.2 and 1 g/Kg; 1 h
# Protocol: as §1, §2, §3
# [3] = Whole-body autoradiography: localization of [14C] NNN radioactivity in bronchial epithelium after oral alcohol pretreatment; format: in vivo, male C57BL/6J mice
# Protocol: as §1, §2, §3
# nitrosamine localization [4] = experiment: Whole-body autoradiography of [14C] NNN after intraperitoneal imidazole; format: in vivo, male C57BL/6J mouse; settings: 20 min before i.v. [14C] NNN, vs control mouse
# Protocol: An adult male C57BL/6J mouse was injected intraperitoneally with 0.02 ml/g body weight of a solution of imidazole in water. The imidazole solution concentration was such that 0.05 g of imidazole was delivered per kg of body weight. […] See Example 1.
# Example 4 was duplicated except that the adult mouse was injected intraperitoneally with 0.02 ml/g body weight of a solution of imidazole in water, wherein the solution concentration was such that 0.25 g of imidazole was delivered per kg of body weight.
# adult human = settings: per kg body weight; cited from earlier work
molecule,measurement,setting,value
CCCCC(CC)CO (stereo not shown) [2-ethyl hexanol],Acute Oral LD50 rats,"rats; rat, in vivo, po",3.2 to 7.1 g/kg
"CN(CCCC(=O)c1cccnc1)N=O [NNK, 4-N-methyl-N-nitrosamino)-1-(3-pyridyo-1-butano]",carcinogenicity,rodents,powerful environmental carcinogens
"O=NN1CCCC1c1cccnc1 (stereo not shown) [NNN, N'-Nitrosonoronicotine]",carcinogenicity,rodents,powerful environmental carcinogens
same,sites of tumor formation,rodents; in vivo,"typically induces tumor formation at five sites, namely the nasal cavity, salivary duct, esophagus, bronchial epithelium and the liver"
same,"carcinogenesis in olfactory epithelium, lung, salivary glands",rodents; rodents,"known to induce carcinogenesis in the olfactory epithelium, lung, salivary glands"
same,retention of radioactivity versus sites of tumor formation,tissues of the body,striking correlation of the retention of radioactivity with the previously reported sites of tumor formation
same,hydroxylation at the a-carbon of NNN adjacent to the pyridine ring,F-344 rat esophagus,preferentially catalyzes hydroxylation at the a-carbon of NNN adjacent to the pyridine ring
same,esophageal tumors,F-344 rats,esophageal tumors have been induced
[Se] [Selenium],tumor development,[1],inhibit tumor development
O=C1O[C@H]([C@@H](O)CO)C(O)=C1O [Vitamin C],formation of nitrosamines on epithelial membranes,epithelial membranes,prevent the formation of nitrosamines on epithelial membranes
S=C=NCc1ccccc1 [benzylisothiocyanate],delocalization of nitrosamines,nitrosamine localization [2],found to delocalize nitrosamines
OC1CCCCC1 [cyclohexanol],radioactivity in bronchial epithelium,"bronchial epithelium; 20° C., 0.001% cyclohexanol in air",No radioactivity was detected in any part of the bronchial epithelium
same,radioactivity in bronchial epithelium,"bronchial epithelium; 50° C., 0.01% cyclohexanol in air",No radioactivity was detected in any part of the bronchial epithelium
"C[S+](C)[O-] [dimethylsulfoxide (DMSO), dimethylsulfoxide]",delocalization of nitrosamines,nitrosamine localization [2],found to delocalize nitrosamines
CCO [ethanol],localization of radioactivity in salivary duct epithelium,salivary duct epithelium,reduced by pretreatment
same,localization of radioactivity in periportal and central areas of the liver,liver,reduced by pretreatment
same,localization of radioactivity in bronchial epithelium,"[3]; oral 20 min before i.v. [14C] NNN, ethanol 1 and 5 g/Kg, n-butanol 0.2 and 1 g/Kg, 1 h",reduced by pretreatment
c1c[nH]cn1 [imidazole],delocalization of nitrosamines,nitrosamine localization [2],found to delocalize nitrosamines
same,nitrosamine delocalization,nitrosamine localization [4]; 0.05 g/kg imidazole i.p.,Significant nitrosamine delocalization
same,delocalization of nitrosamine,nitrosamine localization [4]; 0.25 g/kg imidazole i.p.,significant delocalization of nitrosamine
CN1CCCC1c1cccnc1 (stereo not shown) [nicotine],estimated acutely fatal oral dose,adult human,1 mg/kg
c1cn[nH]c1 [pyrazole],delocalization of nitrosamines,nitrosamine localization [2],found to delocalize nitrosamines
"CC1=C(/C=C/C(C)=C/C=C/C(C)=C/CO)C(C)(C)CCC1 [retinol, reference compound]",inhibition of nitrosamine localization,nitrosamine localization [2],does not inhibit nitrosamine localization
"[Cl-].[Na+] [sodium chloride, reference compound]",LD50,"rats; acute oral, rats",about 3.75 g/Kg
CC(C)(C)O [t-butanol],"inhibition in bronchial epithelium (FIG. 1), ranking","[3]; from inspection of FIG. 1, oral pretreatment",greatest inhibition
same,localization of [14C] NNN in bronchial epithelium,"[3]; high dosage (t-butanol 1 g/Kg oral), 20 min before i.v. [14C] NNN",almost completely abolished
Vitamin A,malignant growth,[1],suppress malignant growth
Vitamin E,formation of nitrosamines on epithelial membranes,epithelial membranes,prevent the formation of nitrosamines on epithelial membranes
